Assay results published in patent publication US20110251285A1, “COMBINATIONS OF PRESERVATIVES FOR OPHTHALMIC COMPOSITIONS” (ALLERGAN, INC., priority 2010, published 2011).

Test system: S. aureus, P. aeruginosa, c. albicans, E. coli and/or A. niger
Assay: abbreviated preservative efficacy test against USP, EP-A and EP-B criteria
Format: cell-based
Details: 20 ppm BAK alone
Method: Each of these formulations is tested by performing an abbreviated preservative efficacy test using test organisms S. aureus, P. aeruginosa, c. albicans, E. coli and/or A. niger. The formulations are tested against United States Pharmacopeia Preservative Efficacy Test (USP), European Pharmacopeia Efficacy Test-A (EP-A) and European Pharmacopeia Efficacy Test-B (EP-B) criteria as indicated. Ten (10) ml of each formulation is challenged with approximately 10^5 cfu/ml of test organism. At appropriate time intervals, the amount of bacterial and fungal survivors are assayed using Dey Engley broth (DE) as the neutralizer media. DE, along with filtration, is sufficient at neutralizing the antimicrobial agents in the compositions. One (1) ml of each sample is diluted into nine (9) ml of DE. One (1) ml of the 1:10 dilution is filtered through a 0.45 µm filter and washed with 100 ml of a saline/polysorbate 80 solution. After washing the filtrate a second time with 100 ml of saline/polysorbate 80 solution, the filtrate is placed onto a TSA plate for bacteria and SAB for fungi.

Substance: benzalkonium chloride [BAK]
- Ph Eur-B & A criteria: failed
